The test system of data set [1] is TSST-1 production by S. aureus MN8. It counts as cell-based, Staphylococcus aureus.
The test system of data set [2] is S. aureus MN8. It counts as cell-based, Staphylococcus aureus.
Data set [3] concerns L. crispatus. In words: L. crispatus growth and culture pH, 9 h assay. In kind it is cell-based, Lactobacillus crispatus. To be noted: data not shown; for Alteration of L. crispatus media pH compared to untreated controls: broth cultures, pH meter; for Effect on L. crispatus growth (CFUs/ml): human normal vaginal isolate, 9 h assay, plate counts on Todd Hewitt agar. How it is done: Cultures of a human normal vaginal isolate of L. crispatus were subjected to the same 9 hour assay as used to determine peptide antimicrobial effects on S. aureus. CFUs/ml were determined by dilution plate counts on Todd Hewitt agar (BD). The pHs of overnight broth cultures were also determined with use of a standard pH meter.

The subject of data set [4] is TSST-1 production by S. aureus MNPE. In kind it is cell-based, Staphylococcus aureus.
Data set [5] concerns α-toxin production by S. aureus MNPE. In kind it is cell-based, Staphylococcus aureus.
In data set [6] the test system is S. aureus MNPE. In kind it is cell-based, Staphylococcus aureus.
The test system of data set [7] is IL-8 production by HVECs exposed to S. aureus MN8. It counts as cell-based, human.
For data set [8], the system named is human vaginal epithelial cells (HVECs).

With “HNP-1: human defensin peptide purchased from Sigma-Aldrich”, the “Lowest dose giving complete inhibition of TSST-1 production” value in data set [1] was 0.005 µg/mL. Also, in data set [2], the “Antimicrobial activity against S. aureus” value was “no antimicrobial activity was observed” and the “Reduction of S. aureus growth” value is listed as 1 log.
For “HNP-2: human defensin peptide purchased from Sigma-Aldrich (CYCRIPACIAGERRYGTCIYQGRLWAFCC)” the same measures were 0.005 µg/mL, “no antimicrobial activity was observed” and 1 log.
Regarding “Hbg-2: Hbg-1 peptide with scrambled sequence (STKPFFYFLHTQVKASPTSHDG)”, in data set [1], the “TSST-1 inhibition activity (in words)” value is reported as “comparably active as Hbg-1”. Also, the “Effect on S. aureus MN8 growth (CFUs/ml)” value in data set [2] was “not antimicrobial at any concentration tested”. In data set [3], the “Alteration of L. crispatus media pH compared to untreated controls” value (“Alteration … compared to untreated controls” for short) is given as “nor was alteration in media pH observed” and the “Effect on L. crispatus growth (CFUs/ml)” value is listed as “No inhibition of growth”.
Consider “SP-1: hemoglobin-like synthetic peptide, 0% positively-charged amino acids (SFPTTATYFPAFDLSAGSAQVA)”, for which, in data set [1], the “TSST-1 inhibition activity (in words)” value is “lacked antimicrobial (data not shown) and TSST-1 inhibition activity”. In addition, in data set [2], the “Effect on S. aureus MN8 growth (CFUs/ml)” value was “lacked antimicrobial”. Further, the “TSST-1 inhibition activity (in words)” value in data set [4] was “lacked antimicrobial (data not shown) and TSST-1 inhibition activity”. In addition, the “Inhibition of α-toxin production (in words)” value in data set [5] was “no inhibition of α-toxin production”. For the same substance, in data set [6], the “Effect on S. aureus MNPE growth” value was “lacked antimicrobial”. For the same substance, in data set [3], the “Alteration … compared to untreated controls” value was “nor was alteration in media pH observed” and the “Effect on L. crispatus growth (CFUs/ml)” value is “No inhibition of growth”.
As to “SP-2: hemoglobin-like synthetic peptide, 50% positively-charged amino acids (SKPKKKTYKPHKDLSHGSAKKK)”, the “TSST-1 inhibition activity (in words)” value in data set [1] and in data set [4] was “showed the greatest TSST-1 inhibition activity” in each case. Also, the “Effect on S. aureus MN8 growth (CFUs/ml)” value in data set [2] was “without affecting bacterial growth”. Besides, the “IL-8 production by HVECs incubated with MN8 and peptide” value in data set [7] is 3.6 ± 7.2 pg/mL. Further, the “Concentration at which inhibition of α-toxin production was shown” value in data set [5] was found to be 0.005 µg/mL. In data set [6], the “Effect on S. aureus MNPE growth” value was “without affecting bacterial growth”. Further, in data set [8], the “Cytotoxicity to HVECs” value is on record as “not cytotoxic”. Also, the “Alteration … compared to untreated controls” value in data set [3] is given as “nor was alteration in media pH observed”. For the same substance, the “Effect on L. crispatus growth (CFUs/ml)” value in data set [3] is “No inhibition of growth”.
